Source: patent US9321774B2, “Pyrrolobenzodiazepines” (MEDIMMUNE LIMITED, priority 2012, dated 2016)
Converted amounts (≈) assume the structure as drawn.

How the values were obtained:
Assay in all cases: CLSI broth microplate assay, MIC
Format in all cases: cell-based
MRSA strain EMRSA-15 = details: Staphylococcus aureus, read-out: Minimum inhibitory concentration (MIC mg/L) EMRSA-15
MRSA strain EMRSA-16 = details: Staphylococcus aureus, read-out: Minimum inhibitory concentration (MIC mg/L) EMRSA-16
MRSA strain BB568 = details: Staphylococcus aureus, read-out: Minimum inhibitory concentration (MIC mg/L) BB568
[1] = tested on: community-associated MRSA isolate USA300; details: Staphylococcus aureus, read-out: Minimum inhibitory concentration (MIC mg/L) USA300
[2] = tested on: S. aureus VISA strain Mu50; details: Staphylococcus aureus, read-out: Minimum inhibitory concentration (MIC mg/L) Mu50
E. faecalis VRE1 = details: Enterococcus faecalis, VRE1, read-out: Minimum inhibitory concentration (MIC mg/L) VRE1
E. faecium VRE10 = details: Enterococcus faecium, VRE10, read-out: Minimum inhibitory concentration (MIC mg/L) VRE10

| Structure (SMILES) | MIC (MRSA strain EMRSA-15) | MIC (MRSA strain EMRSA-16) | MIC (MRSA strain BB568) | MIC [1] | MIC [2] | MIC (E. faecalis VRE1) | MIC (E. faecium VRE10) |
| --- | --- | --- | --- | --- | --- | --- | --- |
| COc1cc2c(cc1OCCCC(=O)Nc1ccc(-c3cc(C(=O)NCc4ccc(OCCN5CCOCC5)cc4)n(C)c3)cc1)N=C[C@@H]1CCCN1C2=O [Compound 52, (S)-4-(4-(4-((7-methoxy-5-oxo-2,3,5,11a-tetrahydro-1H-benzo[e]pyrrolo[1,2-a][1,4]diazepin-8-yl)oxy)butanamido)phenyl)-1-methyl-N-(4-(2-morpholinoethoxyl)benzyl)-1H-pyrrole-2-carboxamide] | 4 mg/L (≈ 5.34 µM) | 1 to 2 mg/L (≈ 1.34 to 2.67 µM) | 4 mg/L (≈ 5.34 µM) | 4 mg/L (≈ 5.34 µM) | 2 mg/L (≈ 2.67 µM) | 2 mg/L (≈ 2.67 µM) | 1 mg/L (≈ 1.34 µM) |
| COc1cc2c(cc1OCCCC(=O)Nc1ccc(-c3cc(C(=O)Nc4ccc(N5CCOCC5)cc4)n(C)c3)cc1)N=C[C@@H]1CCCN1C2=O [Compound 49, (S)-4-(4-(4-((7-methoxy-5-oxo-2,3,5,11a-tetrahydro-1H-benzo[e]pyrrolo[1,2-a][1,4]diazepin-8-yl)oxy)butanamido)phenyl)-1-methyl-N-(4-morpholinophenyl)-1H-pyrrole-2-carboxamide] | 2 mg/L (≈ 2.9 µM) | 2 mg/L (≈ 2.9 µM) | 2 mg/L (≈ 2.9 µM) | 2 mg/L (≈ 2.9 µM) | 1 mg/L (≈ 1.45 µM) | 0.5 mg/L (≈ 0.724 µM) | 0.5 to 1 mg/L (≈ 0.724 to 1.45 µM) |
